From patent publication US8173635B2, “Kinase inhibitors” (Vertex Pharmaceuticals Incorporated, priority 2007, dated 2012)
pKi: −log10 of the molar value.

Columns and labels:
Format in all cases: biochemical
PKC delta kinase = PKC delta kinase (Homo sapiens, UniProt Q05655); experiment: PKC delta kinase inhibition, coupled-enzyme NADH absorbance assay (Ki); details: 150 μM ATP, 46 nM PKC delta, 30° C.; read-out: Ki PKC delta
Procedure: (§1) An assay buffer solution was prepared which consisted of 100 mM HEPES (pH 7.5), 10 mM MgCl2, 25 mM NaCl, 0.1 mM EDTA and 0.01% Brij. […] To 16 μL of this enzyme buffer, in a 384 well plate, was added 1 μL of VRT stock solution in DMSO. The mixture was allowed to equilibrate for 10 mins at 30° C. […] Ki values were calculated from initial rate data by non-linear regression using the Prism software package (Prism 4.0a, Graphpad Software, San Diego, Calif.).

PKC theta kinase = PKC theta kinase (Homo sapiens, UniProt Q04759); experiment: PKC theta kinase inhibition, coupled-enzyme NADH absorbance assay (Ki); details: 240 μM ATP, 18 nM PKC theta, 30° C.; read-out: Ki PKC theta
Procedure: as §1, with “To 60” for “To 16”, “added 2” for “added 1”

PKC alpha kinase = PKC alpha kinase (Homo sapiens, UniProt P17252); experiment: PKC alpha kinase inhibition, coupled-enzyme NADH absorbance assay (Ki); details: 130 μM ATP, 4.5 nM PKC alpha, 30° C.; read-out: Ki PKC alpha
Procedure: as §1, with “EDTA, 100 μM CaCl2” for “EDTA”, “C. The enzyme reaction was initiated by the addition of 16 μL stock ATP solution prepared in assay buffer to a final assay concentration of 130 μM. Initial rate data was determined from the rate of change of absorbance at 340 nm (corresponding to stoichiometric consumption of NADH) using a Molecular Devices Spectramax plate reader (Sunnyvale, Calif.) over 15 mins at 30° C.” for “C.”

Sequence of PKC delta kinase (Q05655 whole entry): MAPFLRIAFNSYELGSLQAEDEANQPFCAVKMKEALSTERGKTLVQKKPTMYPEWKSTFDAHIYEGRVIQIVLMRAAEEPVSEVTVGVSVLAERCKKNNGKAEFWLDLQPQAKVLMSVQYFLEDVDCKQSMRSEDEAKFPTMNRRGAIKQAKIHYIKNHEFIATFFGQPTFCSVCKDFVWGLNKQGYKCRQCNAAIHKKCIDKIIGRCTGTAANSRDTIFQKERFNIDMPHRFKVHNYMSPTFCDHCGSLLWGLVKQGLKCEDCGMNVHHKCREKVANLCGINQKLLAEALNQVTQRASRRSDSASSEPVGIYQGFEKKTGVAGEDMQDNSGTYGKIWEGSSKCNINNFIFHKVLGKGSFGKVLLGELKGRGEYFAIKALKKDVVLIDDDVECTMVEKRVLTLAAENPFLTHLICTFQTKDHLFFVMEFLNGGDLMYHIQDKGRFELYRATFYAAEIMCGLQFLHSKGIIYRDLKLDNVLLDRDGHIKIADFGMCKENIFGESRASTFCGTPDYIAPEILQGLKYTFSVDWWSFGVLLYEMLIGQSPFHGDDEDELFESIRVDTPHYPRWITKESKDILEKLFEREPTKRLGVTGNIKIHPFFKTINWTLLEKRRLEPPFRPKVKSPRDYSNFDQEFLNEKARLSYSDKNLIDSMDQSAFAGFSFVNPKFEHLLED
Sequence of PKC theta kinase (Q04759 whole entry): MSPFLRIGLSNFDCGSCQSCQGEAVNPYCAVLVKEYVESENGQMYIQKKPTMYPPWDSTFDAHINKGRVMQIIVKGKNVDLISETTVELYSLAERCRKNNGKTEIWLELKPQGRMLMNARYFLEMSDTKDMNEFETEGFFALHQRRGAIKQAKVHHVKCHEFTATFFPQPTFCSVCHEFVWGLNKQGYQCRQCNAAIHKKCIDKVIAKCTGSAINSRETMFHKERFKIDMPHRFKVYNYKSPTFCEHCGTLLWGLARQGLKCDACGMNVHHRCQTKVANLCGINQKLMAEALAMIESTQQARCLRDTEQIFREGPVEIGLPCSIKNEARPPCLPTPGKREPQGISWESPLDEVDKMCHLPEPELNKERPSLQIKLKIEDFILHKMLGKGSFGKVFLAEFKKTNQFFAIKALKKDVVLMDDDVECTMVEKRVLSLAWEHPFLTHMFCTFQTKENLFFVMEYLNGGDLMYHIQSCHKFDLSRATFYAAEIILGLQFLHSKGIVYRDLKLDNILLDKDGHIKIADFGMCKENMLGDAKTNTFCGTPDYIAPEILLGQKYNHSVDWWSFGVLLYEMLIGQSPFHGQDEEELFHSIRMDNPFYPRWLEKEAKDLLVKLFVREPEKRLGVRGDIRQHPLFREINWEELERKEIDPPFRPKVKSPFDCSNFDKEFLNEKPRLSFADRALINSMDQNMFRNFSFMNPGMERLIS

SMILES | pKi (PKC delta kinase) | pKi (PKC theta kinase) | pKi (PKC alpha kinase)
N[C@H]1CCC[C@@H]1c1cccc(-c2ccnc3[nH]ncc23)c1 [Compound 251] | < 5.92 | > 6.30 | < 5.92
CC(C)(C#N)c1cc(-c2ccnc3n[nH]cc23)ccc1Br [Compound 83] |  | > 5.55 | 
CC(O)c1cc(-c2ccnc3[nH]ncc23)cc(C(C)(C)CN)c1 (centres unmarked) [Compound 39] | < 5.55 | > 6.30 | < 5.55
N#CC(c1cccc(-c2ccnc3[nH]ncc23)c1)N1CCOCC1 (centres unmarked) [Compound 320] | < 5.92 | < 6.15 | < 5.92
CC#CCC(C)(CN)c1cccc(-c2ccnc3[nH]ncc23)c1 (centres unmarked) [Compound 155] | > 7.30 | > 7.30 | > 6.30
CC(CN)(CC(F)F)c1cccc(-c2ccnc3[nH]ncc23)c1 (centres unmarked) [Compound 148] | > 7.30 | > 7.30 | > 6.30
CCC(C)(CN)c1cc(CCCOC)cc(-c2ccnc3[nH]ncc23)c1 (centres unmarked) [Compound 164] | > 5.55 | > 7.30 | > 6.30
CCC(C#N)c1cc(C)cc(-c2ccnc3[nH]ncc23)c1 (centres unmarked) [Compound 86] | < 5.55 | > 6.30 | > 5.55
CCC(C)(CN)c1cc(CC(C)C)cc(-c2ccnc3[nH]ncc23)c1 (centres unmarked) [Compound 137] | < 5.55 | > 6.30 | < 5.55
CCC(C)(C#N)c1cc(CCCO)cc(-c2ccnc3[nH]ncc23)c1 (centres unmarked) [Compound 103] | < 5.70 | > 7.30 | > 5.55
CCC(C)(CN)c1cccc(-c2ccnc3[nH]nc(C(F)(F)F)c23)c1 (centres unmarked) [Compound 213, 2-methyl-2-(3-(3-(trifluoromethyl)-1H-pyrazolo[3,4-b]pyridin-4-yl)phenyl)butan-1-amine] | > 7.30 | > 7.30 | > 7.30
CC(C)(CN)c1cc(-c2ccnc3[nH]ncc23)cc(N2CCCCC2)c1 [Compound 33] |  | < 5.55 | 
CC[C@@](C)(CN)c1cccc(-c2ccnc3[nH]ncc23)c1 [Compound 152] | > 6.30 | > 7.30 | > 6.30
CC(C)(C#N)c1cccc(-c2ccnc3[nH]ncc23)n1 [Compound 1, 2-(6-(1H-pyrazolo[3,4-b]pyridin-4-yl)pyridin-2-yl)-2-methylpropanenitrile] | > 6.30 | > 7.30 | > 6.30
Cc1cc(-c2ccnc3[nH]ncc23)cc(C2(CN)CCCC2)c1 [Compound 189] |  | > 7.30 | > 5.55
CC(C)(C)OC(=O)NCCNc1cc(-c2ccnc3[nH]ncc23)cc(C(C)(C)C#N)c1 [Compound 81] |  | > 5.55 | 

SMILES | pKi (PKC delta kinase) | pKi (PKC theta kinase) | pKi (PKC alpha kinase)
CCC(C#N)(CC)c1cccc(-c2ccnc3[nH]ncc23)c1 [Compound 68] |  | > 6.30 | > 5.55
N#CC1(c2cccc(-c3ccnc4[nH]ncc34)n2)CCNCC1 [Compound 2] | > 6.30 | > 7.30 | 
CC(C)(CN)c1cc(-c2ccccc2)cc(-c2ccnc3[nH]ncc23)c1 [Compound 35] |  | > 5.55 | 
CCCc1cc(-c2ccnc3[nH]nc(C(F)(F)F)c23)cc(C2(C#N)CC2)c1 [Compound 313] | < 5.92 |  | < 5.92
N#CC1(c2cccc(-c3ccnc4[nH]ncc34)c2)CCNCC1 [Compound 6] | > 5.55 | > 6.30 | 
OC1CCc2cc(-c3ccnc4[nH]ncc34)ccc21 (centres unmarked) [Compound 27] |  | > 5.55 | 
O=C1CCc2cc(-c3ccnc4[nH]ncc34)ccc21 [Compound 26] |  | > 5.55 | 
C/C=C/c1cc(CNC)cc(-c2ccnc3[nH]ncc23)c1 [Compound 60] |  | > 5.55 | 
O=C1CCc2ccc(-c3ccnc4[nH]ncc34)cc21 [Compound 28] |  | > 6.30 | 
CNCc1cc(Br)cc(-c2ccnc3[nH]ncc23)c1 [Compound 25] |  | > 6.30 | 
CC(C)C(O)c1cc(-c2ccnc3[nH]ncc23)cc(C(C)(C)CN)c1 (centres unmarked) [Compound 43] |  | > 5.55 | 
N#CCc1cccc(-c2ccnc3[nH]ncc23)c1 [Compound 23] |  | > 6.30 | 
N#CC1(c2cccc(-c3ccnc4[nH]ncc34)n2)CCNC1 (centres unmarked) [Compound 3] | > 6.30 | > 7.30 | 
OC1CCc2ccc(-c3ccnc4[nH]ncc34)cc21 (centres unmarked) [Compound 29] |  | < 5.55 | 
C=CCc1cc(CNC)cc(-c2ccnc3[nH]ncc23)c1 [Compound 63] |  | > 6.30 | 
CC(C)(C#N)c1cc(NCCCNC(=O)OCc2ccccc2)cc(-c2ccnc3[nH]ncc23)c1 [Compound 82] |  | > 5.55 | 

Next, values leading:

pKi (PKC delta kinase) | pKi (PKC theta kinase) | pKi (PKC alpha kinase) | SMILES
< 5.55 | > 6.30 | < 5.55 | CC(O)Cc1cc(-c2ccnc3[nH]ncc23)cc(C(C)(C)C#N)c1 (centres unmarked) [Compound 79]
< 5.55 | > 5.55 | < 5.55 | CC(C#N)(c1cccc(-c2ccnc3[nH]ncc23)c1)C1CCCC1 (centres unmarked) [Compound 72]
 | > 6.30 |  | C#Cc1cc(-c2ccnc3[nH]ncc23)cc(C(C)(C)C#N)c1 [Compound 61]
 | > 5.55 |  | CC(C)(C#N)c1cc(-c2ccccc2)cc(-c2ccnc3[nH]ncc23)c1 [Compound 53, 2-(5-(1H-pyrazolo[3,4-b]pyridin-4-yl)biphenyl-3-yl)-2-methylpropanenitrile]
< 5.70 | > 6.30 | < 5.92 | CCC(C)(C#N)c1cc(CC#N)cc(-c2ccnc3[nH]ncc23)c1 (centres unmarked) [Compound 126]
 | > 5.55 |  | CC(C)(C#N)c1cc(-c2ccnc3[nH]ncc23)cc(C2CCCCC2)c1 [Compound 58]
 | > 6.30 |  | CC(C)(C#N)c1cc(NC2CCNCC2)cc(-c2ccnc3[nH]ncc23)c1 [Compound 20]
> 5.55 | > 7.30 |  | CC(C)(C#N)c1cccc(-c2ccnc3[nH]ncc23)c1 [Compound 4, 2-(3-(1H-pyrazolo[3,4-b]pyridin-4-yl)phenyl)-2-methylpropanenitrile]
 | > 6.30 |  | CC(C)(CN)c1cc(-c2ccc[nH]2)cc(-c2ccnc3[nH]ncc23)c1 [Compound 38]
< 5.55 | > 6.30 |  | CC(C)(C#N)c1cc(Nc2ccccc2)cc(-c2ccnc3[nH]ncc23)c1 [Compound 10]
 | > 5.55 |  | CC(C)(C#N)c1cc(-c2ccnc3[nH]ncc23)cc(N2CCCCC2)c1 [Compound 9]
> 5.55 | > 7.30 |  | Cc1cc(-c2ccnc3[nH]ncc23)cc(C(C)(C)C#N)c1 [Compound 5]
< 5.55 | > 6.30 |  | CC(C)(C#N)c1cc(-c2ccnc3[nH]ncc23)cc(N2CCNCC2)c1 [Compound 8]
 | < 5.55 |  | CC(C)(C#N)c1cc(C2=CCCCC2)cc(-c2ccnc3[nH]ncc23)c1 [Compound 56]
 | > 6.30 |  | CC(=O)c1cc(-c2ccnc3[nH]ncc23)cc(C(C)(C)C#N)c1 [Compound 24]
 | > 6.30 |  | C=C(C)c1cc(-c2ccnc3[nH]ncc23)cc(C(C)(C)C#N)c1 [Compound 65]
 | > 5.55 |  | CC(C)(C#N)c1cc(NCc2ccccc2)cc(-c2ccnc3[nH]ncc23)c1 [Compound 12]
< 5.55 | < 5.55 |  | CC(=O)N1CCN(c2cc(-c3ccnc4[nH]ncc34)cc(C(C)(C)C#N)c2)CC1 [Compound 7]
 | > 6.30 |  | CC(C)(C#N)c1cc(NC2CNC2)cc(-c2ccnc3[nH]ncc23)c1 [Compound 14]
 | > 5.55 |  | CC(C)(C#N)c1cc(-c2ccnc3[nH]ncc23)cc(C(O)c2ccccc2)c1 (centres unmarked) [Compound 15]
 | > 5.55 |  | CC(C)(CN)c1cc(C2=CCCCC2)cc(-c2ccnc3[nH]ncc23)c1 [Compound 37]
 | > 5.55 |  | CC(C)(C#N)c1cc(C(=O)c2ccccc2)cc(-c2ccnc3[nH]ncc23)c1 [Compound 16]
